# Results published in patent US11801242B2, “Compositions and methods for adjuvant cancer therapeutics” (DUKE UNIVERSITY, priority 2018, dated 2023).
# Test system: REV1 CTD-REV7 interaction
# Experiment: ELISA assay probing the REV1 CTD-REV7 interaction
# Type: binding, mouse
# Settings: ratio of test compound IC50 to RE01 IC50
# Method: The ELISA assay for probing the REV1 CTD-REV7 interaction was carried out by immobilizing 50 nM His8-tagged REV7/3 in 200 μL phosphate-buffered saline (PBS, Gibco) containing 0.2% BSA in a Ni-NTA coated 96-well plate (HisSorb, Qiagen) for 30 minutes. Unbound His8-tagged REV7/3 was removed by washing the wells four times with PBS containing 0.05% Tween-20. […] After incubation for 30 minutes, the wells were washed four times with PBS containing 0.05% Tween-20 to remove the unbound FLAG-tagged POL κ RIR-REV1 CTD. A solution of the anti-FLAG horseradish peroxidase (HRP)-conjugated antibody (Sigma-Aldrich) in PBS containing 0.2% BSA was then added to the wells. After incubating for 1 hour, the antibody was washed off four times with PBS containing 0.05% Tween-20. The 3,3′,5,5′-tetramethylbenzedine (TMB) substrate (SureBlue TMB, Seracare) was added to the wells. After incubation of 20-30 minutes, the reaction was quenched with 1 M HCl. A SpectraMax plate reader (Molecular Devices) was used to measure absorbance at 450 nm.
row,Compound,Relative IC50 Ratio
1,"CC(C)CC(=O)c1c(Nc2ccc(F)cc2F)[nH]c2c(Cl)ccc([N+](=O)[O-])c2c1=O [RE24, 8-chloro-2-((2,4-difluorophenyl)amino)-3-(3-methylbutanoyl)-5-nitroquinolin-4(1H)-one]",C (C represents a ratio of test compound IC50 to RE01 IC50 between 1.5-10)
2,"CC(C)CC(=O)c1c(Nc2ccc(C(C)C)cc2)[nH]c2c(Cl)ccc([N+](=O)[O-])c2c1=O [RE21, 8-chloro-2-((4-isopropylphenyl)amino)-3-(3-methylbutanoyl)-5-nitroquinolin-4(1H)-one]",C (C represents a ratio of test compound IC50 to RE01 IC50 between 1.5-10)
3,"CC(=O)c1c(Nc2ccc(Cl)cc2Cl)[nH]c2c(Cl)ccc([N+](=O)[O-])c2c1=O [RE12, 3-acetyl-8-chloro-2-((2,4-dichlorophenyl)amino)-5-nitroquinolin-4(1H)-one]",B (B represents a ratio of test compound IC50 so to RE1 IC50 between 0.8 and 1.5)
4,"CC(C)CC(=O)c1c(Nc2ccc(Cl)cc2Cl)[nH]c2c(Cl)cccc2c1=O [RE25, 8-chloro-2-((2,4-dichlorophenyl)amino)-3-(3-methylbutanoyl)quinolin-4(1H)-one]",C (C represents a ratio of test compound IC50 to RE01 IC50 between 1.5-10)
5,"CC(C)CC(=O)c1c(Nc2ccc(Cl)cc2Cl)[nH]c2c(Cl)ccc(C(=O)O)c2c1=O [RE09, 8-chloro-2-((2,4-dichlorophenyl)amino)-3-(3-methylbutanoyl)-4-oxo-1,4-dihydroquinoline-5-carboxylic acid]",B (B represents a ratio of test compound IC50 so to RE1 IC50 between 0.8 and 1.5)
6,"CC(C)CC(=O)c1c(Nc2ccc(Br)cc2Br)[nH]c2c(Cl)ccc([N+](=O)[O-])c2c1=O [RE04, 8-chloro-2-((2,4-dibromophenyl)amino)-3-(3-methylbutanoyl)-5-nitroquinolin-4(1H)-one]",B (B represents a ratio of test compound IC50 so to RE1 IC50 between 0.8 and 1.5)
7,"CC(C)CC(=O)c1c(Nc2ccc(Cl)cc2Cl)[nH]c2c(Cl)ccc(C(F)(F)F)c2c1=O [RE26, 8-chloro-2-((2,4-dichlorophenyl)amino)-3-(3-methylbutanoyl)-5-(trifluoromethyl)quinolin-4(1H)-one]",C (C represents a ratio of test compound IC50 to RE01 IC50 between 1.5-10)
8,"CC(C)CC(=O)c1c(Nc2ccc(Cl)cc2C(F)(F)F)[nH]c2c(Cl)ccc([N+](=O)[O-])c2c1=O [RE18, 8-chloro-2-((4-chloro-2-(trifluoromethyl)phenyl)amino)-3-(3-methylbutanoyl)-5-nitroquinolin-4(1H)-one]",A (A represents a ratio of test compound IC50 to RE01 IC50 of less than 0.8)
9,"CC(C)CC(=O)c1c(Nc2ccc(Cl)cc2Cl)[nH]c2c(C(=O)O)ccc([N+](=O)[O-])c2c1=O [RE10, 2-((2,4-dichlorophenyl)amino)-3-(3-methylbutanoyl)-5-nitro-4-oxo-1,4-dihydroquinoline-8-carboxylic acid]",B (B represents a ratio of test compound IC50 so to RE1 IC50 between 0.8 and 1.5)
10,"CC(C)CC(=O)c1c(Nc2ccc(Cl)cc2Cl)[nH]c2c(Cl)cc([N+](=O)[O-])cc2c1=O [RE34, 8-chloro-2-((2,4-dichlorophenyl)amino)-3-(3-methylbutanoyl)-6-nitroquinolin-4(1H)-one]",A (A represents a ratio of test compound IC50 to RE01 IC50 of less than 0.8)
11,"CC(C)CC(=O)c1c(Nc2c(F)cc(F)cc2F)[nH]c2c(Cl)ccc([N+](=O)[O-])c2c1=O [RE33, 8-chloro-3-(3-methylbutanoyl)-5-nitro-2-((2,4,6-trifluorophenyl)amino)quinolin-4(1H)-one]",C (C represents a ratio of test compound IC50 to RE01 IC50 between 1.5-10)
12,"CC(C)CC(=O)c1c(Nc2ccc(Cl)cc2Cl)[nH]c2c(Cl)ccc(N)c2c1=O [RE11, 5-amino-8-chloro-2-((2,4-dichlorophenyl)amino)-3-(3-methylbutanoyl)quinolin-4(1H)-one]",C (C represents a ratio of test compound IC50 to RE01 IC50 between 1.5-10)
13,"Cc1ccc([N+](=O)[O-])c2c(=O)c(C(=O)CC(C)C)c(Nc3ccc(Cl)cc3Cl)[nH]c12 [RE36, 2-((2,4-dichlorophenyl)amino)-8-methyl-3-(3-methylbutanoyl)-5-nitroquinolin-4(1H)-one]",C (C represents a ratio of test compound IC50 to RE01 IC50 between 1.5-10)
14,"CC(C)CC(=O)c1c(Nc2ccc(Cl)cc2Cl)[nH]c2c(Br)ccc([N+](=O)[O-])c2c1=O [RE39, 8-bromo-2-((2,4-dichlorophenyl)amino)-3-(3-methylbutanoyl)-5-nitroquinolin-4(1H)-one]",B (B represents a ratio of test compound IC50 so to RE1 IC50 between 0.8 and 1.5)
15,"CC(C)CC(=O)c1c(Nc2ccc(I)cc2I)[nH]c2c(Cl)ccc([N+](=O)[O-])c2c1=O [RE17, 8-chloro-2-((2,4-diiodophenyl)amino)-3-(3-methylbutanoyl)-5-nitroquinolin-4(1H)-one]",B (B represents a ratio of test compound IC50 so to RE1 IC50 between 0.8 and 1.5)
16,"CC(C)CC(=O)c1c(Nc2ccc3ccccc3c2)[nH]c2c(Cl)ccc([N+](=O)[O-])c2c1=O [RE19, 8-chloro-3-(3-methylbutanoyl)-2-(naphthalen-2-ylamino)-5-nitroquinolin-4(1H)-one]",B (B represents a ratio of test compound IC50 so to RE1 IC50 between 0.8 and 1.5)
17,"COc1ccc([N+](=O)[O-])c2c(=O)c(C(=O)CC(C)C)c(Nc3ccc(Cl)cc3Cl)[nH]c12 [RE37, 2-((2,4-dichlorophenyl)amino)-8-methoxy-3-(3-methylbutanoyl)-5-nitroquinolin-4(1H)-one]",C (C represents a ratio of test compound IC50 to RE01 IC50 between 1.5-10)
18,"CC(C)CC(=O)c1c(Nc2ccc(Cl)cc2Cl)[nH]c2ccccc2c1=O [RE28, 2-((2,4-dichlorophenyl)amino)-3-(3-methylbutanoyl)quinolin-4(1H)-one]",A (A represents a ratio of test compound IC50 to RE01 IC50 of less than 0.8)
19,"CC(C)CC(=O)c1c(Nc2ccc(Cl)cc2Cl)[nH]c2cc([N+](=O)[O-])ccc2c1=O [RE35, 2-((2,4-dichlorophenyl)amino)-3-(3-methylbutanoyl)-7-nitroquinolin-4(1H)-one]",A (A represents a ratio of test compound IC50 to RE01 IC50 of less than 0.8)
20,"CC(C)CC(=O)c1c(Nc2ccc(C(=O)O)cc2Cl)[nH]c2c(Cl)ccc([N+](=O)[O-])c2c1=O [RE06, 3-chloro-4-((8-chloro-3-(3-methylbutanoyl)-5-nitro-4-oxo-1,4-dihydroquinolin-2-yl)amino)benzoic acid]",C (C represents a ratio of test compound IC50 to RE01 IC50 between 1.5-10)
21,"O=C(O)/C(O)=C/C(=O)c1c(Nc2ccc(Cl)cc2Cl)[nH]c2c(Cl)ccc([N+](=O)[O-])c2c1=O [RE13, (Z)-4-(8-chloro-2-((2,4-dichlorophenyl)amino)-5-nitro-4-oxo-1,4-dihydroquinolin-3-yl)-2-hydroxy-4-oxobut-2-enoic acid]",A (A represents a ratio of test compound IC50 to RE01 IC50 of less than 0.8)
22,"COc1ccc(Cl)c2[nH]c(Nc3ccc(Cl)cc3Cl)c(C(=O)CC(C)C)c(=O)c12 [RE29, 8-chloro-2-((2,4-dichlorophenyl)amino)-5-methoxy-3-(3-methylbutanoyl)quinolin-4(1H)-one]",A (A represents a ratio of test compound IC50 to RE01 IC50 of less than 0.8)
23,"CC(=NO)c1c(Nc2ccc(Cl)cc2Cl)[nH]c2c(Cl)ccc([N+](=O)[O-])c2c1=O [RE14, 8-chloro-2-((2,4-dichlorophenyl)amino)-3-(1-(hydroxyimino)ethyl)-5-nitroquinolin-4(1H)-one]",B (B represents a ratio of test compound IC50 so to RE1 IC50 between 0.8 and 1.5)
24,"CC(C)CC(=O)c1c(Nc2ccc(Cl)c(Cl)c2)[nH]c2c(Cl)ccc([N+](=O)[O-])c2c1=O [RE31, 8-chloro-2-((3,4-dichlorophenyl)amino)-3-(3-methylbutanoyl)-5-nitroquinolin-4(1H)-one]",C (C represents a ratio of test compound IC50 to RE01 IC50 between 1.5-10)
25,"CC(C)CC(=O)c1c(Nc2ccccc2Cl)[nH]c2c(Cl)ccc([N+](=O)[O-])c2c1=O [RE23, 8-chloro-2-((2-chlorophenyl)amino)-3-(3-methylbutanoyl)-5-nitroquinolin-4(1H)-one]",B (B represents a ratio of test compound IC50 so to RE1 IC50 between 0.8 and 1.5)
26,"Cc1ccc(Nc2[nH]c3c(Cl)ccc([N+](=O)[O-])c3c(=O)c2C(=O)CC(C)C)c(C)c1 [RE22, 8-chloro-2-((2,4-dimethylphenyl)amino)-3-(3-methylbutanoyl)-5-nitroquinolin-4(1H)-one]",C (C represents a ratio of test compound IC50 to RE01 IC50 between 1.5-10)
27,"CC(C)CC(=O)c1c(Nc2ccc(Cl)cc2)[nH]c2c(Cl)ccc([N+](=O)[O-])c2c1=O [RE20, 8-chloro-2-((4-chlorophenyl)amino)-3-(3-methylbutanoyl)-5-nitroquinolin-4(1H)-one]",C (C represents a ratio of test compound IC50 to RE01 IC50 between 1.5-10)
28,"CC(O)c1c(Nc2ccc(Cl)cc2Cl)[nH]c2c(Cl)ccc([N+](=O)[O-])c2c1=O (stereo not shown) [RE15, 8-chloro-2-((2,4-dichlorophenyl)amino)-3-(1-hydroxyethyl)-5-nitroquinolin-4(1H)-one]",B (B represents a ratio of test compound IC50 so to RE1 IC50 between 0.8 and 1.5)
